In article PMC5908784, “Extracellular loops 2 and 3 of the calcitonin receptor selectively modify agonist binding and efficacy” (Biochemical Pharmacology, 2018):
Where a chain is given by its changes, count along the chain named. Where a SMILES comes first, the peptide text is derived from it. Bridges are numbered along the chain shown (N, C = ends).

How the values were obtained:
Type in all cases: cell-based
hCTR Y374A = molecular target: T1, hCTR Y374A (Homo sapiens, UniProt P30988, Y374A); test: ERK1/2 phosphorylation; conditions: CV1-FlpIn cells, mean ± S.E.M.; for Emax: pERK maximal response; for EC50: pERK, three-parameter logistic fit
T1 construct: c-Myc (N); expressed in transfected cells
T1 sequence (P30988 25-474 Y374A): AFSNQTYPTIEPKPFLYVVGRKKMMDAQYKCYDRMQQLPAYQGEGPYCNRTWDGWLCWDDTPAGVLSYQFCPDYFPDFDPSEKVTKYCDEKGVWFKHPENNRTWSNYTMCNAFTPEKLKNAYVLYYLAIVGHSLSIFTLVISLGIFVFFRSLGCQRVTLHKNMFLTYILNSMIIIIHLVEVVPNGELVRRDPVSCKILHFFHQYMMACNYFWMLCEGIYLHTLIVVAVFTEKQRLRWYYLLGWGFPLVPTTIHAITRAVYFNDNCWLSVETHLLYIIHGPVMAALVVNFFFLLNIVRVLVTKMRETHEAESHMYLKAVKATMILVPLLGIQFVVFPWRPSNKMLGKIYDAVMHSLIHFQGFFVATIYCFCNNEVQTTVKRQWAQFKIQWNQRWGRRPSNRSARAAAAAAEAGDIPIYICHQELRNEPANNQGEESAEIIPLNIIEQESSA
How it was run: (§1)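 First, cells (2.5 × 10^4 per well) were plated and left overnight. Agonist concentration-response data were then scaled to the peak signal given by 10% FBS at 6 min. Finally, a 3-parameter logistic equation yielded EC50 and Emax.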

hCTR F359A = molecular target: T2, hCTR F359A (Homo sapiens, UniProt P30988, F359A); test: ERK1/2 phosphorylation; conditions: for EC50: pERK, hCTR F359A, CV1-FlpIn cells, three-parameter logistic fit, mean ± S.E.M.; for Emax: read-out: Emax (% WT)
T2 construct: expressed in transfected cells
T2 sequence (P30988 25-474 F359A): T1 sequence (P30988 25-474 Y374A) with F335A, A350Y
How it was run: as §1

hCTR E294A = molecular target: T3, hCTR E294A (Homo sapiens, UniProt P30988, E294A); test: IP1 accumulation; conditions: mean ± S.E.M.; for Emax: IP1 maximal response, SEM
T3 construct: c-Myc (N); expressed in transfected cells
T3 sequence (P30988 25-474 E294A): T1 sequence (P30988 25-474 Y374A) with E270A, A350Y
Protocol: (§2) Cells (2.5 × 10^4 cells/well) were plated into 96 well trays and cultured overnight. Cells were stimulated with increasing concentration of ligands for 60 min in the presence of LiCl. Samples were lysed and endogenous IP1 was measured using an IP-One HTRF® assay kit (CisBio) as specified by the manufacturer. Data were normalized to the maximal response elicited by 100 μM of ATP.
(§3) Data were corrected for radioligand occupancy using the Cheng-Prusoff equation in Prism; as such data are reported as pKi. Emax and EC50 were estimated from concentration-response curves using with a 3-parameter logistic equation in Prism (v7). These values are a composite of functional affinity, efficacy and stimulus response coupling. […] Significance was accepted at P < 0.05.

hCTR V357A = molecular target: T4, hCTR V357A (Homo sapiens, UniProt P30988, V357A); test: IP1 accumulation; conditions: mean ± S.E.M.; for Emax: IP1 maximal response, SEM
T4 construct: c-Myc (N); expressed in transfected cells
T4 sequence (P30988 25-474 V357A): T1 sequence (P30988 25-474 Y374A) with V333A, A350Y
Protocol: as §2, §3

hCTR G369A = molecular target: T5, hCTR G369A (Homo sapiens, UniProt P30988, G369A); test: IP1 accumulation; conditions: mean ± S.E.M.; for Emax: IP1 maximal response, SEM
T5 construct: c-Myc (N); expressed in transfected cells
T5 sequence (P30988 25-474 G369A): T1 sequence (P30988 25-474 Y374A) with G345A, A350Y
Protocol: as §2, §3

[1] = IP1, CV1-FlpIn cells, 60 min, LiCl

EC50 (hCTR Y374A) | EC50 (hCTR F359A) | EC50 (hCTR E294A; [1]) | EC50 (hCTR V357A; [1]) | EC50 (hCTR G369A; [1]) | SMILES | Emax (hCTR Y374A) | Emax (hCTR E294A) | Emax (hCTR V357A) | Emax (hCTR G369A) | Emax (hCTR F359A)
61.7 nM | 6.31 nM | – | – | – | CC(C)C[C@H](NC(=O)CNC(=O)[C@H](C)NC(=O)[C@H](CC(C)C)NC(=O)[C@H](CCCNC(=N)N)NC(=O)[C@H](Cc1cnc[nH]1)NC(=O)[C@@H](NC(=O)[C@@H](NC(=O)[C@@H]1CSSC[C@H](NC(=O)[C@H](C)N)C(=O)N[C@@H](CC(=O)O)C(=O)N[C@@H]([C@@H](C)O)C(=O)N[C@@H](C)C(=O)N[C@@H]([C@@H](C)O)C(=O)N1)C(C)C)[C@@H](C)O)C(=O)N[C@@H](CC(C)C)C(=O)N[C@@H](CO)C(=O)N[C@@H](CCCNC(=N)N)C(=O)N[C@@H](CO)C(=O)NCC(=O)NCC(=O)N[C@H](C(=O)N[C@H](C(=O)N[C@@H](CCCCN)C(=O)N[C@@H](CC(N)=O)C(=O)N[C@@H](CC(N)=O)C(=O)N[C@@H](Cc1ccccc1)C(=O)N[C@H](C(=O)N1CCC[C@H]1C(=O)N[C@H](C(=O)N[C@@H](CC(N)=O)C(=O)N[C@H](C(=O)NCC(=O)N[C@@H](CO)C(=O)N[C@@H](CCCCN)C(=O)N[C@@H](C)C(=O)N[C@@H](Cc1ccccc1)C(N)=O)C(C)C)[C@@H](C)O)C(C)C)C(C)C)C(C)C [hαCGRP] | 49 ± 8% | – | – | – | –
2.69 nM | 6.31 nM | 1.29 nM | 15.5 nM | 7.59 nM | CSCC[C@H](NC(=O)CNC(=O)[C@H](CO)NC(=O)[C@H](Cc1ccccc1)NC(=O)[C@H](CCCNC(=N)N)NC(=O)[C@H](Cc1c[nH]cn1)NC(=O)[C@H](Cc1ccccc1)NC(=O)[C@H](CC(N)=O)NC(=O)[C@H](CC(N)=O)NC(=O)[C@H](CC(C)C)NC(=O)[C@H](CC(N)=O)NC(=O)[C@H](CCCNC(=N)N)NC(=O)[C@H](Cc1c[nH]c2ccccc12)NC(=O)[C@H](Cc1ccc(O)cc1)NC(=O)[C@H](C)NC(=O)[C@H](CO)NC(=O)[C@H](CC(C)C)NC(=O)[C@@H](NC(=O)[C@@H]1CSSC[C@H](N)C(=O)N[C@@H](CO)C(=O)N[C@@H](CC(N)=O)C(=O)N[C@@H](CC(C)C)C(=O)N[C@@H](CO)C(=O)N[C@@H]([C@@H](C)O)C(=O)N1)C(C)C)C(=O)NCC(=O)N[C@@H](Cc1ccccc1)C(=O)NCC(=O)N1CCC[C@H]1C(=O)N[C@@H](CCC(=O)O)C(=O)N[C@H](C(=O)N1CCC[C@H]1C(N)=O)[C@@H](C)O [pCT] (H-CSNLSTCVLSAYWRNLNNFHRFSGMGFGPETP-NH2; disulfide 1-7) | 105 ± 8% | 119 ± 8% | 48 ± 4% | 110 ± 6% | –
– | – | – | – | – | CC(C)C[C@H](NC(=O)[C@H](CCCCN)NC(=O)CNC(=O)[C@H](CC(C)C)NC(=O)[C@@H](NC(=O)[C@@H]1CSSC[C@H](N)C(=O)N[C@@H](CO)C(=O)N[C@@H](CC(N)=O)C(=O)N[C@@H](CC(C)C)C(=O)N[C@@H](CO)C(=O)N[C@@H]([C@@H](C)O)C(=O)N1)C(C)C)C(=O)N[C@@H](CO)C(=O)N[C@@H](CCC(N)=O)C(=O)N[C@@H](CCC(=O)O)C(=O)N[C@@H](CC(C)C)C(=O)N[C@@H](Cc1c[nH]cn1)C(=O)N[C@@H](CCCCN)C(=O)N[C@@H](CC(C)C)C(=O)N[C@@H](CCC(N)=O)C(=O)N[C@H](C(=O)N[C@@H](Cc1ccc(O)cc1)C(=O)N1CCC[C@H]1C(=O)N[C@@H](CCCNC(=N)N)C(=O)N[C@H](C(=O)N[C@@H](CC(N)=O)C(=O)N[C@H](C(=O)NCC(=O)N[C@@H](CO)C(=O)NCC(=O)N[C@H](C(=O)N1CCC[C@H]1C(N)=O)[C@@H](C)O)[C@@H](C)O)[C@@H](C)O)[C@@H](C)O [sCT] | 99 ± 5% | 84 ± 5% | 39 ± 3% | 97 ± 7% | 186 ± 7%
– | – | – | – | – | CC[C@H](C)[C@H](NC(=O)[C@H](C)NC(=O)[C@@H](NC(=O)[C@H](CCC(N)=O)NC(=O)[C@@H]1CCCN1C(=O)[C@H](Cc1ccccc1)NC(=O)[C@@H](NC(=O)[C@H](Cc1c[nH]cn1)NC(=O)[C@H](Cc1ccccc1)NC(=O)[C@H](CCCCN)NC(=O)[C@H](CC(N)=O)NC(=O)[C@H](Cc1ccccc1)NC(=O)[C@H](CC(=O)O)NC(=O)[C@H](CCC(N)=O)NC(=O)[C@@H](NC(=O)[C@H](Cc1ccc(O)cc1)NC(=O)[C@@H](NC(=O)CNC(=O)[C@H](CC(C)C)NC(=O)[C@H](CCSC)NC(=O)[C@@H]1CSSC[C@H](N)C(=O)NCC(=O)N[C@@H](CC(N)=O)C(=O)N[C@@H](CC(C)C)C(=O)N[C@@H](CO)C(=O)N[C@@H]([C@@H](C)O)C(=O)N1)[C@@H](C)O)[C@@H](C)O)[C@@H](C)O)[C@@H](C)O)C(=O)NCC(=O)N[C@H](C(=O)NCC(=O)N[C@@H](C)C(=O)N1CCC[C@H]1C(N)=O)C(C)C [hCT] | 94 ± 4% | 57 ± 6% | 50 ± 4% | 148 ± 10% | 153 ± 8%
– | – | – | – | – | CC(C)C[C@H](NC(=O)[C@H](CC(N)=O)NC(=O)[C@H](CC(N)=O)NC(=O)[C@H](CO)NC(=O)[C@H](CO)NC(=O)[C@H](CCCNC(=N)N)NC(=O)[C@@H](NC(=O)[C@H](CC(C)C)NC(=O)[C@H](Cc1ccccc1)NC(=O)[C@H](CC(N)=O)NC(=O)[C@H](C)NC(=O)[C@H](CC(C)C)NC(=O)[C@H](CCCNC(=N)N)NC(=O)[C@H](CCC(N)=O)NC(=O)[C@@H](NC(=O)[C@H](C)NC(=O)[C@@H]1CSSC[C@H](NC(=O)[C@@H](N)CCCCN)C(=O)N[C@@H](CC(N)=O)C(=O)N[C@@H]([C@@H](C)O)C(=O)N[C@@H](C)C(=O)N[C@@H]([C@@H](C)O)C(=O)N1)[C@@H](C)O)C(C)C)C(=O)NCC(=O)N1CCC[C@H]1C(=O)N[C@H](C(=O)N[C@@H](CC(C)C)C(=O)N1CCC[C@H]1C(=O)N1CCC[C@H]1C(=O)N[C@H](C(=O)N[C@@H](CC(N)=O)C(=O)N[C@H](C(=O)NCC(=O)N[C@@H](CO)C(=O)N[C@@H](CC(N)=O)C(=O)N[C@H](C(=O)N[C@@H](Cc1ccc(O)cc1)C(N)=O)[C@@H](C)O)C(C)C)[C@@H](C)O)C(C)C [rAmy] | 61 ± 5% | – | – | – | 58 ± 11%
